Where “and” joins values, the source holds several entries; their conditions need not be identical. Equal entries are not always repeated. Where two headings read alike, the source gives them in different places.
Key:
zebrafish embryos [1] = test: Zebrafish toxicity: heart rates; format: in vivo
Protocol: (§1) To investigate the toxicity of these four compounds, the heart rates and the mortality rates of zebrafish embryos were recorded (Table 2 and Table 3). The heart rate of zebrafish in the control group was 117 beats/min.
(§2) Using transgenic fli-1: enhanced GFP zebrafish embryos, we investigated the effects of all compounds on angiogenesis. Zebrafish embryos were generated by natural pairwise mating and raised at 28.5 °C in embryo water (0.2 g/L of Instant Ocean Salt in distilled water). At about 6 h post fertilization (hpf), the embryos were sorted in the 6-well plate (six embryos/well), removing dead and unhealthy embryos. Then the embryos were treated with the indicated concentrations of compounds which were added into embryo water. After incubation for 24 or 48 h, the embryos were anesthetized using 0.05% 2-phenoxyethanol in embryo water, quantified and photographed.

A549 = test: MTT assay, cell proliferation; format: cell-based; conditions: Homo sapiens, 24 h, read-out: IC50, inhibition of cell proliferation
Protocol: (§3) HepG2, HCT116, HeLa and LO2 cell lines were cultured in DMEM containing 10% fetal bovine serum (FBS), 100 IU/mL penicillin and 100 µg/mL streptomycin; A549 and K562 cell lines were cultured in RPMI 1640 medium containing 10% fetal bovine serum (FBS), 100 IU/mL penicillin and 100 µg/mL streptomycin; Human umbilical vein endothelial cells (HUVECs) were cultured on gelatin-coated culture flasks in M-199 medium with 20% fetal bovine serum (FBS), 2 ng/mL VEGF, 10 ng/mL basic FGF, 100 IU/mL penicillin, and 100 μg/mL streptomycin; all of them were obtained from the American Type Culture Collection (ATCC) and all cell lines were incubated in an atmosphere of 5% CO2 at 37 °C.
(§4) Cells were treated with various concentrations of compound in 96-well culture plates for 24 h in final volumes of 200 μL (5 × 10^3 cells/well). Then 20 μL of MTT solution (5 mg/mL) was added to each well, and cells were incubated for an additional 3 h. Then the medium was carefully removed, and precipitates were dissolved in 150 μL of DMSO, shaken mechanically for 30 min, and then absorbance values at a wavelength of 570 nm were taken on a spectrophotometer (Molecular Devices, Sunnyvale, CA, USA). Values were calculated using percentage of growth versus untreated control. The IC50 was defined as the concentration that caused 50% inhibition of cell proliferation, and was calculated by SAS statistical software.

HeLa = test: MTT assay, cell proliferation; format: cell-based; conditions: Homo sapiens, 24 h, read-out: IC50, inhibition of cell proliferation
Protocol: as §3, §4

K562 = test: MTT assay, cell proliferation; format: cell-based; conditions: Homo sapiens, 24 h, read-out: IC50, inhibition of cell proliferation
Protocol: as §3, §4

HCT116 = test: MTT assay, cell proliferation; format: cell-based; conditions: Homo sapiens, HCT-116, 24 h, read-out: IC50, inhibition of cell proliferation
Protocol: as §3, §4

HepG2 = test: MTT assay, cell proliferation; format: cell-based; conditions: Homo sapiens, 24 h, read-out: IC50, inhibition of cell proliferation
Protocol: as §3, §4

HUVEC = test: MTT assay, cell proliferation; format: cell-based, Human; conditions: Homo sapiens, 24 h, read-out: IC50, inhibition of cell proliferation
Protocol: Inhibiting the proliferation of ECs is another important strategy for antiangiogenesis. […] As the exposure time of these derivatives was 24 h in the migration assay and 6 h in the tube formation assay, the effect of the incubation for 24 h in the presence of these compounds on HUVECs proliferation was then tested. Cell viability was assessed by the MTT method. We can see from Table 4 that these compounds had different antiproliferative activities.
as §3, §4

[2] = test system: transgenic fli-1: enhanced GFP zebrafish embryos; test: Zebrafish embryo assay: antiangiogenic effects; format: in vivo, zebrafish (Danio rerio); conditions: zebrafish embryos; for inhibition in vivo at 1 µM / inhibition in vivo at 2.5 µM / inhibition in vivo at 10 µM: Danio rerio
Protocol: As stated previously, zebrafish is regarded as a powerful tool in the study of human diseases. […] In this study, all GA derivatives were incubated with the transgenic friend leukemia integration-1 (fli-1): enhanced GFP zebrafish embryos which carried a fli-1 promoter which can drive the expression of GFP in the whole endothelium.
Figure 1 Effects on neovascularization in zebrafish embryos. The transgenic fli-1: enhanced GFP zebrafish embryos in embryo water (0.2 g/L of instant ocean salt in distilled water) incubated with 1 μM of compounds at 6 h postfertilization (hpf) for 24 h. Zebrafish embryos were imaged (Imager.Z1, magnification: left, 40×; right, 100×).
as §2, with “Zebrafish embryos were generated by natural pairwise mating and raised at 28.5 °C in embryo water (0.2 g/L of Instant Ocean Salt in distilled water).” left out

LO2 = test: MTT assay, cytotoxicity; format: cell-based; conditions: Homo sapiens, L02, 24 h, read-out: IC50, inhibition of cell proliferation
Protocol: as §3, §4

HUVECs [3] = test: Matrigel tube formation assay; format: cell-based, Human; conditions: Homo sapiens, HUVEC, 0.5 μM, 6 h, vs control, read-out: inhibitory rates of tube formation
Protocol: In the later stages of angiogenesis, tube formation of ECs is also an important process. Thus, a Matrigel tube formation assay was applied to assess the ability of HUVECs to form ECs vascular structures which is believed to be significant in new vessel formation.
Figure 4 Effects on the HUVECs tube formation. (I) HUVECs (1 × 10^4 cells) suspended in DMEM containing each compound (0.5 or 1 or 2 μM) were added to the Matrigel. Control was treated with DMEM alone. After incubation for 6 h at 37 °C, capillary networks were photographed and quantified (Olympus CKX41, magnification: 100×); (II) Rates of the HUVECs tube formation. The number of intact tubes was counted in five randomly chosen regions and expressed as the percentage of the control. The results were expressed as mean ±SD. ** p < 0.01; *** p < 0.005 compared with control.
Matrigel was dissolved at 4 °C overnight. Each well of prechilled 96-well plates was coated with 50 μL of Matrigel, incubated and solidified at 37 °C for 45 min. After removing the unsolidified fluid, HUVECs at the density of 1 × 10^4 were cultured in DMEM containing the indicated concentrations of compounds for 6 h. Controls were treated with the DMEM alone. Images were digitally captured and quantitatively analyzed (Olympus). The numbers and line lengths of the circular tubules formed by the cells were calculated manually. The values were observed from five randomly selected fields.

zebrafish embryos [4] = test: Zebrafish toxicity: mortality rate; format: in vivo, zebrafish (Danio rerio)
Protocol: as §1, §2

HUVECs [5] = test: Wound-healing migration assay; format: cell-based, Human; conditions: 1 μM, 24 h, control = 100%
Description: The migration of ECs is an important step of angiogenesis. The continuity of vascular ECs is the most important factor in preserving vessel wall function. Migration of ECs is essential to the recovery of this continuity after vascular ECs injury. […] As illustrated in Figure 3(I), the HUVECs migrated into the wound area actively (between the two white dash lines) under the compound-free condition (control).
Figure 3 Effects on the HUVECs migration. (I) HUVECs suspended in serum-free Dulbecco’s Modified Eagle Medium (DMEM) containing compounds (0.25 or 0.5 or 1 μM) for 24 h were photographed under a phase contrast microscopy (Olympus CKX41, magnification: 50×). Control was treated with serum-free DMEM which was consided as resulting in 100%; (II) Migration rates of compounds on the HUVECs. Data represented the mean standard deviation (SD) from three independent experiments. *** p < 0.005compared with control.
HUVECs were seeded in 6-well plates precoated with 0.1% gelatin, and grown overnight to confluence. The monolayer cells were wounded by scratching with 10 μL pipet tips and washed twice with serum-free DMEM (Dulbecco’s modified eagle medium) to remove the nonadherent cells and then replaced by serum-free DMEM with the indicated concentrations of compounds for 24 h. Images were taken at 0 h and 24 h independently after incubation at 37 °C, 5% CO2 environment. The migrated HUVECs were manually counted. The values were observed from four randomly selected fields.

[6] = transgenic fli-1:enhanced GFP (fli-1:EGFP) line, zebrafish, in vivo, 2.5 μM
[7] = transgenic fli-1:enhanced GFP (fli-1:EGFP) line, zebrafish, in vivo, 10 μM
[8] = vs vehicle (0.05% DMSO), read-out: Anti-angiogenic phenotype
[9] = 2.5 μM, vs vehicle (0.05% DMSO), read-out: Anti-angiogenic phenotype
[10] = 10 μM, vs vehicle (0.05% DMSO), read-out: Anti-angiogenic phenotype
[11] = 2.5 µM and 10 µM, zebrafish embryos

Structure (SMILES)	Heart rates of zebrafish (zebrafish embryos [1]; [6]) [beats/min]	Heart rates of zebrafish (zebrafish embryos [1]; [7]) [beats/min]	IC50 (A549) [µM]	IC50 (HeLa) [µM]	IC50 (K562) [µM]	IC50 (HCT116) [µM]	IC50 (HepG2) [µM]	IC50 (HUVEC) [µM]	inhibition in vivo at 1 µM ([2]; read-out: antiangiogenic rates) [%]	inhibition in vivo at 1 µM [2, 8] [%]	inhibition in vivo at 2.5 µM [2, 9] [%]	inhibition in vivo at 10 µM [2, 10] [%]	IC50 (LO2) [µM]	inhibition at 0.5 µM (HUVECs [3]) [%]	Mortality rates (zebrafish embryos [4]; 1 μM, zebrafish) [%]	Mortality rates (zebrafish embryos [4]; [11])	Mortality rates (zebrafish embryos [4]; 2.5 μM, zebrafish) [%]	Mortality rates (zebrafish embryos [4]; 10 μM, zebrafish) [%]	Heart rates of zebrafish (zebrafish embryos [1]; 2.5 μM, control 117 beats/min)	Heart rates of zebrafish (zebrafish embryos [1]; 10 μM, control 117 beats/min)	further results
CC(=O)Nc1ccc(OC(=O)/C(C)=C\CC23OC(C)(C)C4CC(C=C5C(=O)c6c(O)c7c(c(CC=C(C)C)c6OC542)OC(C)(CCC=C(C)C)C=C7)C3=O)cc1 (stereo not shown) [Compound 4, 4-Acetamidephenyl gambogate]	80 ± 5.31	54 ± 4.00	0.95 ± 0.09	1.34 ± 0.04	0.41 ± 0.02	0.48 ± 0.04	1.1 ± 0.06	1.17 ± 0.12	25 to 50	25 to 50	50 to 75	> 75	0.83 ± 0.03	43.5	0	less than 20%	6.7 ± 5.77	20 ± 0.00			
CC(=O)Nc1ccc(NC(=O)/C(C)=C\CC23OC(C)(C)C4CC(C=C5C(=O)c6c(O)c7c(c(CC=C(C)C)c6OC542)OC(C)(CCC=C(C)C)C=C7)C3=O)cc1 (stereo not shown) [Compound 35, N-(4-acetamidophenyl) gambogamide]			0.5 ± 0.05	0.49 ± 0.02	0.26 ± 0.01	0.4 ± 0.02	0.27 ± 0.05	0.2 ± 0.01	25 to 50	25 to 50	50 to 75	> 75	1.17 ± 0.41	37	3.3 ± 5.77	less than 20%	10 ± 0.00	16.7 ± 5.77	57 ± 2.61 beats/min	45 ± 4.95 beats/min	heart rates relative to control group (zebrafish embryos [1]; 2.5 µM and 10 µM, zebrafish): about half of the control group; migratory rates (HUVECs [5]): 3.6%
CC(C)=CCCC1(C)C=Cc2c(O)c3c(c(CC=C(C)C)c2O1)OC12C(=CC4CC1C(C)(C)OC2(C/C=C(/C)C(=O)Nc1nccs1)C4=O)C3=O (stereo not shown) [Compound 32, Thiazol-2-gambogamide]	60 ± 4.36	54 ± 3.68	0.74 ± 0.04	1.08 ± 0.1	0.4 ± 0.02	0.45 ± 0.01	0.81 ± 0.06	1.09 ± 0.09	25 to 50	25 to 50	50 to 75	> 75	1.7 ± 0.48	39.1	0	less than 20%	6.7 ± 5.77	16.7 ± 5.77			
CC(C)=CCC[C@]1(C)C=Cc2c(O)c3c(c(CC=C(C)C)c2O1)O[C@]12C(=C[C@@H]4C[C@H]1C(C)(C)O[C@@]2(C/C=C(/C)C(=O)O)C4=O)C3=O [GA, Gambogic acid]			0.94 ± 0.03	1.14 ± 0.06	0.49 ± 0.03	0.59 ± 0.03	0.84 ± 0.04	0.27 ± 0.01	25 to 50	25 to 50			0.89 ± 0.08	26.1	20 ± 0.00		73.3	100	Dead ^b	Dead	Heart rates of zebrafish (zebrafish embryos [1]; 1 μM, control 117 beats/min): 36 beats/min and 36 ± 3.32 beats/min; Anti-angiogenic phenotype ([2]; 2.5 μM, vs vehicle (0.05% DMSO)): Dead ^b; Anti-angiogenic phenotype ([2]; 10 μM, vs vehicle (0.05% DMSO)): Dead; Mortality rates (zebrafish embryos [4]; 2.5 μM, zebrafish, listed as A): 73.3 ± 5.77%; migratory rates (HUVECs [5]): 2.2%
